Starred links: 1 amine or outer side, 2 acyl side, 3 side chain; linkers in the order of their positions; H or OH if unused. Non-standard residues stand in square brackets, D forms with d. Residues, ends and D or L forms follow the SMILES beside them. *: point of attachment. X11 = NC(=O)C[C@@H](CN([C@@H](Cc1c[nH]c2ccccc12)C(=O)[*:2])[*:1])N[*:3]; Phe(4-F) = N[C@@H](Cc1ccc(F)cc1)C(=O)O; Cyclohexanecarbonyl = O=C(C1CCCCC1)*; Arg(Me) = CNC(=N)NCCC[C@H](N)C(=O)O; 4Pal = N[C@@H](Cc1ccncc1)C(=O)O; d3Pal = N[C@H](Cc1cccnc1)C(=O)O; d4Pal = N[C@H](Cc1ccncc1)C(=O)O; Cha = N[C@@H](CC1CCCCC1)C(=O)O; Abu = CC[C@H](N)C(=O)O; Cbz = O=C(OCc1ccccc1)*; Bz = O=C(c1ccccc1)*; azaGly = NNC(=O)O
biological target: T1, hOT7T175 (Homo sapiens, UniProt Q969F8); assay: Intracellular Ca ion level-increasing activity using FLIPR (180 seconds; specific activity to Metastin (1-54)); format: cell-based; conditions: hOT7T175/CHO, change in intracellular calcium ion level for 180 seconds, Tables 21-23
T1 construct: expressed in transfected cells
T1 sequence (Q969F8 whole entry L364H): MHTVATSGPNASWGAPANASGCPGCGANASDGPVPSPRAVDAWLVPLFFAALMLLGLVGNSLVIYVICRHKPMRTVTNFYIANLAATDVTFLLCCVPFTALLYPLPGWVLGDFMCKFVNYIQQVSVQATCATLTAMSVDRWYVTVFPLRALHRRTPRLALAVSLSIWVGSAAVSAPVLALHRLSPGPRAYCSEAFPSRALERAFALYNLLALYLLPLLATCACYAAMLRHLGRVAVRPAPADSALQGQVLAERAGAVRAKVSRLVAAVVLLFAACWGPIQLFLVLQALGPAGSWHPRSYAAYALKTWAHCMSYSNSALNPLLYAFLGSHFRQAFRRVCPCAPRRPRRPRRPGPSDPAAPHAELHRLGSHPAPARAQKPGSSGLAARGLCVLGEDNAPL
Procedure: In accordance with the method described in JPA 2000-312590, the intracellular Ca ion level-increasing activity was measured using FLIPR. […]
The intracellular Ca ion level-increasing activity of the synthetic peptide in hOT7T175/CHO was determined using FLIPR (Molecular Devices, Inc.).
hOT7T175/CHO was subcultured in DMEM supplemented with 10% dialyzed fetal bovine serum (hereinafter abbreviated as dFBS) and provided for the experiment (hereinafter abbreviated as 10% dFBS/DMEM). The hOT7T175/CHO was suspended in 10% dFBS-DMEM in 15×10^4 cells/ml. The suspension was inoculated on a 96-well plate for FLIPR (Black Plate Clear Bottom, Coster, Inc.) at 200 μl each (3.0×10^4 cells/200 μl), followed by incubation at 37° C. overnight in a 5% CO2 incubator. The cells thus incubated were used (hereinafter simply referred to as the cell plate). Then, 21 ml of HANKS/HBSS (9.8 g of HANKS', 0.35 g of sodium hydrogencarbonate, 20 ml of 1M HEPES; after adjusting the pH to 7.4 with 1N sodium hydroxide, the mixture was subjected to sterilization through a filter), 210 μl of […] Probenecid and 210 μl of fetal bovine serum (FBS) were mixed (HANKS/HBSS-Probenecid-FBS).
Furthermore, 2 vials of Fluo3-AM (50 μg/vial) were dissolved in 21 μL of dimethylsulfoxide and 21 μL of 20% Pluronic acid. The resulting solution was added to and mixed with 10 ml of HANKS/HBSS-Probenecid-FBS described above. After the culture medium was removed, the mixture was dispensed onto the cell plate in 100 μl each/well, followed by incubation at 37° C. for an hour in a 5% CO2 incubator (pigment loading). The peptide was dissolved in dimethylsulfoxide in 1×10^−3 M. The peptide solution was diluted with HANKS'/HBSS containing 2.5 mM Probenecid and 0.2% BSA. The dilution was transferred to a 96-well plate for FLIPR (V-Bottom plate, Coster, Inc.) (hereinafter referred to as a sample plate). After completion of the pigment loading onto the cell plate, the cell plate washed 4 times with wash buffer, which was obtained by adding 2.5 mM Probenecid to HANKS'/HBSS, using a plate washer to leave 100 μL of wash buffer after the washing. The cell plate and the sample plate were set in FLIPR and 0.05 ml of a sample from the sample plate was automatically transferred to the cell plate with the FLIPR device to promote the cell response. A change in intracellular calcium ion level for 180 seconds was measured with passage of time.

Compound	intracellular Ca ion level-increasing activity [specific activity to Metastin (1-54)]
CNC(=N)NCCC[C@H](NC(=O)[C@H](CC(C)C)NC(=O)NNC(=O)[C@H](Cc1ccccc1)NC(=O)[C@H](CO)NC(=O)[C@H](CC(N)=O)NC(=O)[C@H](Cc1ccncc1)NC(=O)[C@@H](CC(N)=O)NC(=O)[C@@H](N)Cc1ccc(O)cc1)C(=O)N[C@@H](Cc1ccccc1)C(N)=O [Compound No. 304, Tyr-D-Asn-Pya(4)-Asn-Ser-Phe-AzaGly-Leu-Arg(Me)-Phe-NH2] (H-Y[dN][4Pal]NSF[azaGly]L[Arg(Me)]F-NH2)	3
CNC(=N)NCCC[C@H](NC(=O)[C@H](CC(C)C)NC(=O)NNC(=O)[C@H](Cc1ccccc1)NC(=O)[C@H](CO)NC(=O)[C@H](CC(N)=O)NC(=O)[C@H](CC1CCCCC1)NC(=O)[C@@H](Cc1ccc(O)cc1)NC(=O)[C@H](N)Cc1cccnc1)C(=O)N[C@@H](Cc1ccccc1)C(N)=O [Compound No. 291, D-Pya(3)-D-Tyr-Cha-Asn-Ser-Phe-AzaGly-Leu-Arg(Me)-Phe-NH2] (H-[d3Pal][dY][Cha]NSF[azaGly]L[Arg(Me)]F-NH2)	2
CNC(=N)NCCC[C@H](NC(=O)[C@H](CC(C)C)NC(=O)NNC(=O)[C@H](Cc1ccccc1)NC(=O)[C@H](CO)NC(=O)[C@H](CC(N)=O)NC(=O)[C@H](Cc1c[nH]c2ccccc12)NC(=O)[C@@H](Cc1c[nH]cn1)NC(=O)[C@H](N)Cc1ccc(O)cc1)C(=O)N[C@@H](Cc1ccccc1)C(N)=O [Compound No. 288, D-Tyr-D-His-Trp-Asn-Ser-Phe-AzaGly-Leu-Arg(Me)-Phe-NH2] (H-[dY][dH]WNSF[azaGly]L[Arg(Me)]F-NH2)	1
Dibenzylaminocarbamoyl-AzaGly-Leu-Arg(Me)-Trp-NH2 [Compound No. 428]	1/10
6-Hydroxynicotinoyl-Phe-AzaGly-Leu-Arg(Me)-Trp-NH2 [Compound No. 462]	1
CC(C)C[C@H](NC(=O)CNC(=O)[C@H](Cc1ccccc1)NC(=O)[C@H](CO)NC(=O)[C@H](CC(N)=O)NC(=O)[C@H](Cc1c[nH]c2ccccc12)NC[C@H](CC(N)=O)NC(=O)[C@@H](N)Cc1ccc(O)cc1)C(=O)N[C@@H](CCCNC(=N)N)C(=O)N[C@@H](Cc1ccccc1)C(N)=O [Compound No. 295] (H-[X11](Tyr)NSFGLRF-NH2)	1
Methylthiocarbamoyl-Sar-D-Tyr-Asn-Trp-Asn-Ser-Phe-Gly-Leu-Arg(Me)-Phe-NH2 [Compound No. 397]	5
CNC(=N)NCCC[C@H](NC(=O)[C@H](CC(C)C)NC(=O)NNC(=O)[C@H](Cc1ccccc1)NC(=O)[C@H](CO)NC(=O)[C@H](CC(N)=O)NC(=O)[C@H](CC1CCCCC1)NC(=O)[C@@H](CC(N)=O)NC(=O)[C@H](N)Cc1cccnc1)C(=O)N[C@@H](Cc1ccccc1)C(N)=O [Compound No. 290, D-Pya(3)-D-Asn-Cha-Asn-Ser-Phe-AzaGly-Leu-Arg(Me)-Phe-NH2] (H-[d3Pal][dN][Cha]NSF[azaGly]L[Arg(Me)]F-NH2)	1
(S)-1-(Quinolin-8-yl-carbamoyl)-4-thiapentylcarbamoyl-D-Tyr-Asn-Trp-Asn-Ser-Phe-Gly-Leu-Arg(Me)-Phe-NH2 [Compound No. 400]	1
CNC(=N)NCCC[C@H](NC(=O)[C@H](CC(C)C)NC(=O)NNC(=O)[C@H](Cc1ccccc1)NC(=O)[C@H](Cc1ccccc1)NC(=O)[C@H](CO)NC(=O)[C@H](CC(N)=O)NC(=O)[C@H](Cc1ccccc1)NC(=O)[C@H](CC(N)=O)NC(=O)[C@H](N)Cc1ccc(O)cc1)C(=O)N[C@@H](Cc1ccccc1)C(N)=O [Compound No. 270, D-Tyr-Asn-Phe-Asn-Ser-Phe-Phe-AzaGly-Leu-Arg(Me)-Phe-NH2] (H-[dY]NFNSFF[azaGly]L[Arg(Me)]F-NH2)	1
Bz-FGLRF-NH2 [Compound No. 351]	½
CNC(=N)NCCC[C@H](NC(=O)[C@H](CC(C)C)NC(=O)NNC(=O)[C@H](Cc1ccccc1)NC(=O)[C@H](CO)NC(=O)[C@H](CC(N)=O)NC(=O)[C@H](CC1CCCCC1)NC(=O)[C@@H](CC(N)=O)NC(=O)[C@H](N)Cc1ccncc1)C(=O)N[C@@H](Cc1ccccc1)C(N)=O [Compound No. 306, D-Pya(4)-D-Asn-Cha-Asn-Ser-Phe-AzaGly-Leu-Arg(Me)-Phe-NH2] (H-[d4Pal][dN][Cha]NSF[azaGly]L[Arg(Me)]F-NH2)	2
Cbz-[azaGly]L[Arg(Me)]W-NH2 [Compound No. 374]	⅓
Indole-3-acetyl-Phe-AzaGly-Leu-Arg(Me)-Phe-NH2 [Compound No. 345]	2
(2R)-2-Benzoyloxy-3-phenylpropionyl-AzaGly-Leu-Arg(Me)-Trp-NH2 [Compound No. 412]	⅕
CNC(=N)NCCC[C@H](NC(=O)[C@H](CC(C)C)NC(=O)NNC(=O)[C@H](Cc1ccccc1)NC(=O)[C@H](CO)NC(=O)[C@H](CC(N)=O)NC(=O)[C@@H](NC(=O)[C@@H](CC(N)=O)NC(=O)[C@H](N)Cc1ccc(O)cc1)[C@@H](C)O)C(=O)N[C@@H](Cc1ccc(F)cc1)C(N)=O [Compound No. 316, D-Tyr-D-Asn-Thr-Asn-Ser-Phe-AzaGly-Leu-Arg(Me)-Phe(4F)-NH2] (H-[dY][dN]TNSF[azaGly]L[Arg(Me)][Phe(4-F)]-NH2)	1
D-Tyr-D-Pya(4)-Asn-Ser-Phe-AzaGly-Leu-Lys-Phe-NH2 [Compound No. 487]	1
2-Azetidinecarbonyl-Phe-AzaGly-Leu-Arg(Me)-Trp-NH2 [Compound No. 466]	⅓
Pyrazinecarbonyl-Phe-AzaGly-Leu-Arg(Me)-Trp-NH2 [Compound No. 446]	1
Benzoyl-AzaPhe-AzaGly-Leu-Arg(Me)-Trp-NH2 [Compound No. 431]	1
3-(3-Pyridyl)propionyl-Phe-AzaGly-Leu-Arg(Me)-Phe-NH2 [Compound No. 340]	⅕
4-Pyridinecarbonyl-Phe-AzaGly-Leu-Arg(Me)-Phe-NH2 [Compound No. 471]	1
2-Pyridinecarbonyl-Phe-AzaGly-Leu-Arg(Me)-Trp-NH2 [Compound No. 435]	10
CNC(=N)NCCC[C@H](NC(=O)[C@H](CC(C)C)NC(=O)NNC(=O)[C@H](Cc1ccccc1)NC(=O)[C@H](CO)NC(=O)[C@H](CC(N)=O)NC(=O)C1CCCCC1)C(=O)N[C@@H](Cc1ccccc1)C(N)=O [Compound No. 278, Cyclohexanecarbonyl-Asn-Ser-Phe-AzaGly-Leu-Arg(Me)-Phe-NH2] (Cyclohexanecarbonyl-NSF[azaGly]L[Arg(Me)]F-NH2)	2

biological target: T2, hOT7T175 (Homo sapiens, UniProt Q969F8, L364H); assay: not given; format: cell-based; conditions: hOT7T175/CHO, FLIPR, evaluation for 40 seconds after initiation of the reaction
T2 construct: expressed in transfected cells
T2 sequence (Q969F8 whole entry L364H): as above

Compound	Specific Act. (EC50/MS10 EC50)
Ac-D-Tyr-D-Trp-Asn-Thr-Phe-AzaGly-Abu-Arg(Me)-Trp-NH2 (Ac-[dY][dW]NTF[azaGly][Abu][Arg(Me)]W-NH2; SMILES CC[C@H](NC(=O)NNC(=O)[C@H](Cc1ccccc1)NC(=O)[C@@H](NC(=O)[C@H](CC(N)=O)NC(=O)[C@@H](Cc1c[nH]c2ccccc12)NC(=O)[C@@H](Cc1ccc(O)cc1)NC(C)=O)[C@@H](C)O)C(=O)N[C@@H](CCCNC(=N)NC)C(=O)N[C@@H](Cc1c[nH]c2ccccc12)C(N)=O) [Compound No. 698]	2.2

Reference: US8778871B2 (Takeda Pharmaceutical Company Limited, priority 2004, dated 2014)
